Measured values as given in paper PMC9033141, “Beta and Gamma Amino Acid-Substituted Benzenesulfonamides as Inhibitors of Human Carbonic Anhydrases” (Pharmaceuticals, 2022).
Read-outs that look alike come from different tables or passages of the source.

Legend:
CAIII = target: T1, CAIII (Homo sapiens, UniProt P07451); assay: Fluorescent thermal shift assay (FTSA), CAIII; assay type: binding; settings: FTSA, pH 7.0, 37 °C; read-out: Observed Dissociation Constant (Kd_obs), CAIII
T1 construct: made in house; host or cells: E. coli

CAVA = target: T2, CAVA (Homo sapiens, UniProt P35218); assay: Fluorescent thermal shift assay (FTSA), CAVA; assay type: binding; settings: FTSA, pH 7.0, 37 °C; read-out: Observed Dissociation Constant (Kd_obs), CAVA
T2 construct: made in house; host or cells: E. coli

CAI = target: T3, CAI (Homo sapiens, UniProt P00915); assay: biochemical; assay type: binding; settings: FTSA, pH 7.0, 37 °C; read-out: Observed Dissociation Constant (Kd_obs), CAI
T3 construct: made in house; host or cells: E. coli

CAIV = target: T4, CAIV (Homo sapiens, UniProt P22748); assay: Fluorescent thermal shift assay (FTSA), CAIV; assay type: binding; settings: FTSA, pH 7.0, 37 °C; read-out: Observed Dissociation Constant (Kd_obs), CAIV;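 also: recombinant human enzyme, thermal denaturation followed by ANS fluorescence, melting temperature versus ligand concentration fitted for Kd_obs, intrinsic value corrected for deprotonated sulfonamide and Zn-bound water fractions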
T4 construct: made in house; host or cells: E. coli

CAVB = target: T5, CAVB (Homo sapiens, UniProt Q9Y2D0); assay: Fluorescent thermal shift assay (FTSA), CAVB; assay type: binding; settings: FTSA, pH 7.0, 37 °C; read-out: Observed Dissociation Constant (Kd_obs), CAVB
T5 construct: made in house; host or cells: E. coli
Method: (§1) Human CA isozymes were expressed in E. coli (CAI, II, III, IV, VA, VB, VII, XII, XIII, XIV) or mammalian cells (CAVI and CAIX), chromatographically purified following the published protocols [47], and stored at −80 °C. The protein concentration was determined by UV absorption at 280 nm using Beer–Lambert law.
(§2) The QIAGEN Rotor-Gene Q was used to carry out the experiments, with a blue channel used for excitation (365 nm) and detection (460 nm). FTSA in this case relies on an extrinsic probe, 8-anilino-1-naphthalenesulfonate (ANS), to detect the fluorescence increase during protein denaturation, from which protein melting temperature (Tm) can be determined. […] The observed affinity of ligands for CAs was determined by plotting the Tm as a function of ligand concentration and then fitting a curve as described previously [48]. […] Samples were heated from 25 °C to 99 °C at the speed of 1 °C/min.
(§3) The intrinsic thermodynamic parameters were calculated as described in [40]. The intrinsic reaction of inhibitor binding to CA is shown in Equation (1). […] It is known that CA proteins bind sulfonamides only when water molecules are coordinated to the Zn(II) ion, and sulfonamides only bind to CA proteins when their amino group is deprotonated (confirmed by neutron crystallography [53, 54, 55]):(1) CA Zn^II−H2O+RSO2NH^−⇄ CA Zn^II−NH SO2R+H2O
(§4) When calculating Kd_int values, these protein and ligand fractions from Equation (1) have to be accounted for (Equations (2) and (3)). The intrinsic dissociation constant is calculated by multiplying Kd_obs value by the corresponding fractions of protein and ligand (Equation (4)). (2) fRSO2NH^−=10^pH−pKa_RSO2NH2/1+10^pH−pKa_RSO2NH2 (3) fCAZnH2O=1−10^pH−pKa_CAZnH2O/1+10^pH−pKa_CAZnH2O (4) Kd_int=Kd_obs×fRSO2NH^−×fCAZnH2O (5) ΔGint0=RTlnKd_int
(§5) The intrinsic standard Gibbs energy changes upon binding were calculated using Equation (5). Here, R—universal ideal gas constant (8.3144 J/mol·K), T—absolute temperature (310.15 K).

CAVII = target: T6, CAVII (Homo sapiens, UniProt P43166); assay: Fluorescent thermal shift assay (FTSA), CAVII; assay type: binding; settings: FTSA, pH 7.0, 37 °C; read-out: Observed Dissociation Constant (Kd_obs), CAVII
T6 construct: made in house; host or cells: E. coli

CAIX = target: T7, CAIX (Homo sapiens, UniProt Q16790); assay: biochemical; assay type: binding; settings: FTSA, pH 7.0, 37 °C
T7 construct: made in house
Method: as §1, §2
(§6) The intrinsic thermodynamic parameters were calculated as described in [40]. The intrinsic reaction of inhibitor binding to CA is shown in Equation (1).
as §4, §5

CAII = target: T8, CAII (Homo sapiens, UniProt P00918); assay: biochemical; assay type: binding; settings: FTSA, pH 7.0, 37 °C; read-out: Observed Dissociation Constant (Kd_obs), CAII
T8 construct: made in house; host or cells: E. coli
Method: as §1, §2, §6, §4, §5

CAXIII = CAXIII (Homo sapiens, UniProt Q8N1Q1); assay: biochemical; settings: Observed Dissociation Constant (Kd_obs), FTSA, pH 7.0, 37 °C;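 also: recombinant human CAXIII melting temperature tracked by ANS fluorescence in thermal shift assay, Tm fitted against ligand concentration, intrinsic value corrects Kd for deprotonated sulfonamide and Zn-bound water fractions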
CAVI = target: T9, CAVI (Homo sapiens, UniProt P23280); assay: Fluorescent thermal shift assay (FTSA), CAVI; assay type: binding; settings: FTSA, pH 7.0, 37 °C; read-out: Observed Dissociation Constant (Kd_obs), CAVI;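 also: human CAVI expressed in mammalian cells, ANS fluorescence tracked during thermal unfolding, melting temperature fitted against ligand concentration, intrinsic values corrected for deprotonated sulfonamide and Zn-bound water fractions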
T9 construct: made in house
Method: as §1, §2, §3, §4, §5

CAXIV = target: T10, CAXIV (Homo sapiens, UniProt Q9ULX7); assay: Fluorescent thermal shift assay (FTSA), CAXIV; assay type: binding; settings: FTSA, pH 7.0, 37 °C; read-out: Observed Dissociation Constant (Kd_obs), CAXIV;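 also: recombinant human CA XIV from E. coli, ANS-based thermal shift: Kd_obs fitted from melting temperature versus ligand concentration, ΔGint from Kd_obs corrected for deprotonated sulfonamide and Zn-water fractions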
T10 construct: made in house; host or cells: E. coli
Method: as §1, §2, §3, §4, §5

CAXII = target: T11, CAXII (Homo sapiens, UniProt O43570); assay: biochemical; assay type: binding; settings: FTSA, pH 7.0, 37 °C; read-out: Observed Dissociation Constant (Kd_obs), CAXII
T11 construct: made in house; host or cells: E. coli

[1] = read-out: Observed Dissociation Constant (Kd_obs), CAIX
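For Observed Dissociation Constant (Kd obs), CAXII in this document: recombinant CAXII made in E. coli, ANS-fluorescence thermal shift with affinity fitted from Tm versus ligand concentration, intrinsic energy from Kd_obs corrected for deprotonated sulfonamide and Zn-water fractions.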

T3 sequence (P00915 whole entry): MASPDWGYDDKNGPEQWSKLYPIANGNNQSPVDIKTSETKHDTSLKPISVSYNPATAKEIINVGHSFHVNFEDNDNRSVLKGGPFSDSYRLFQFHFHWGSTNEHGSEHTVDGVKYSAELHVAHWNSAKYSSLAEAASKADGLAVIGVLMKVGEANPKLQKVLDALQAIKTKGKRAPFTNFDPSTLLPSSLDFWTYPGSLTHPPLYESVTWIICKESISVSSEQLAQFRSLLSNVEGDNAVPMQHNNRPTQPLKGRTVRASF
T11 sequence (O43570 25-354): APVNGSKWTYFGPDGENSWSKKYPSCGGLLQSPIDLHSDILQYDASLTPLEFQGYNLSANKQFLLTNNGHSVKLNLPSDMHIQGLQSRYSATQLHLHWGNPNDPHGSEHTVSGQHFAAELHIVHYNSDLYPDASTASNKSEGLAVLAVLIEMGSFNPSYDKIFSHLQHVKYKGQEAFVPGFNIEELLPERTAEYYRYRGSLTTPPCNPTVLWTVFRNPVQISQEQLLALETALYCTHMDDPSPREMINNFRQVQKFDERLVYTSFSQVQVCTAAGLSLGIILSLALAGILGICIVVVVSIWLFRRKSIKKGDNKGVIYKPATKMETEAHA
Sequence of CAXIII (Q8N1Q1 whole entry): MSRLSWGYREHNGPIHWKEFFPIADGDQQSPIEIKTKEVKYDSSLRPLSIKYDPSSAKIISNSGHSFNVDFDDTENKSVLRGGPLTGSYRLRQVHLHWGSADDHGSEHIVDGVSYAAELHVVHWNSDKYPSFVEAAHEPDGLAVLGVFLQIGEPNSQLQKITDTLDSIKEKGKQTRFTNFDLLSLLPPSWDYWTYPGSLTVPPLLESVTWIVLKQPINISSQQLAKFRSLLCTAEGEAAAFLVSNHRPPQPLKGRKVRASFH
T2 sequence (P35218 39-305): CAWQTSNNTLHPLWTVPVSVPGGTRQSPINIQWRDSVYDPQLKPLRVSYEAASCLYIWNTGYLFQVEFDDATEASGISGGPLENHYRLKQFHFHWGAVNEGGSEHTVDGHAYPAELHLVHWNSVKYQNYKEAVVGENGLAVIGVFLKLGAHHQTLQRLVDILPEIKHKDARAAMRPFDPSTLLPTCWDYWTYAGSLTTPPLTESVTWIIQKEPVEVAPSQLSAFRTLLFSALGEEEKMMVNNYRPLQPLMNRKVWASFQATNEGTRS
T9 sequence (P23280 21-290 limits assumed): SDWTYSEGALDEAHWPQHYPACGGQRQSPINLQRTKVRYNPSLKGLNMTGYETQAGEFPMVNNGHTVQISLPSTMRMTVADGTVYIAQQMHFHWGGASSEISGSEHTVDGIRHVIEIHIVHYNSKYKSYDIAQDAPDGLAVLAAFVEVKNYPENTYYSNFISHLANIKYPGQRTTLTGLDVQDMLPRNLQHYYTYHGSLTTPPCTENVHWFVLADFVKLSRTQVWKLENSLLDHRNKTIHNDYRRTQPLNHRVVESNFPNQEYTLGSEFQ
T6 sequence (P43166 whole entry): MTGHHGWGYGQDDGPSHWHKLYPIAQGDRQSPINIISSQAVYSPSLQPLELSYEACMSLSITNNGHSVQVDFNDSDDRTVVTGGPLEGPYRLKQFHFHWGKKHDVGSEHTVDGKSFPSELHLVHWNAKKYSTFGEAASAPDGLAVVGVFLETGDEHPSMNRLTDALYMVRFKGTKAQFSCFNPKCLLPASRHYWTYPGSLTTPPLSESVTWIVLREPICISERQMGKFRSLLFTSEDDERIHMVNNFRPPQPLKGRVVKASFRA
T10 sequence (Q9ULX7 16-337): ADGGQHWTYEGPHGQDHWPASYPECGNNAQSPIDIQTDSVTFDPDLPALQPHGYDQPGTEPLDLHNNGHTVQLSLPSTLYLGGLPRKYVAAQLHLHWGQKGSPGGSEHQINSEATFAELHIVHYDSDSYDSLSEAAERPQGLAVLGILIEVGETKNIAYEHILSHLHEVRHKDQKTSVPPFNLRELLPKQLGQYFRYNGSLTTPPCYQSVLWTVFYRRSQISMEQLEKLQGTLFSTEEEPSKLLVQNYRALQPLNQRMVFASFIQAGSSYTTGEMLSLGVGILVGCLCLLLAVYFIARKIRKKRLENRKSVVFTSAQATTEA
T1 sequence (P07451 whole entry): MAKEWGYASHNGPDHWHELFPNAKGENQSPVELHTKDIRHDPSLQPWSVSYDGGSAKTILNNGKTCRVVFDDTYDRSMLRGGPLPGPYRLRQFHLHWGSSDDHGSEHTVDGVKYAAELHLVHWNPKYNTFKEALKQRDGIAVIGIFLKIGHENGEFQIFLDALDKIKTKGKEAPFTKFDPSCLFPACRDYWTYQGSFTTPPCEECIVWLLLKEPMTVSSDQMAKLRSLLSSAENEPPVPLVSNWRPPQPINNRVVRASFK
T5 sequence (Q9Y2D0 34-317): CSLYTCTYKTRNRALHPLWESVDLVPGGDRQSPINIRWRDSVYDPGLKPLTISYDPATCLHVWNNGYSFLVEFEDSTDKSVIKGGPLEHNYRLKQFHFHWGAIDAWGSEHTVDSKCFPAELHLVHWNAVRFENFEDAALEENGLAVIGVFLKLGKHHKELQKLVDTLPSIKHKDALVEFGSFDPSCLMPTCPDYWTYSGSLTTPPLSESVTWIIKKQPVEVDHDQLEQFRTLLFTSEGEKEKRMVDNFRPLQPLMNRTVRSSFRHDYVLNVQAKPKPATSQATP
T4 sequence (P22748 19-312): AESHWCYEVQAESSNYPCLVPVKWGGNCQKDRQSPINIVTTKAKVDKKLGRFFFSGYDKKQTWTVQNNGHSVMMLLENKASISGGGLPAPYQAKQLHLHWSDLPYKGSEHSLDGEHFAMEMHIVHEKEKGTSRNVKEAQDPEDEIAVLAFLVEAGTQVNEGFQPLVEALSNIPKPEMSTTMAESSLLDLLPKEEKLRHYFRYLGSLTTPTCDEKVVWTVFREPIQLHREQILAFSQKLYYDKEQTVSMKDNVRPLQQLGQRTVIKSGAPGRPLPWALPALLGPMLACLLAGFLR

Row | SMILES | Kd (CAIII) [nM] | Kd (CAVA) [nM] | Kd (CAI) [nM] | melting point [°C] | Kd (CAIV) [nM] | Kd (CAVB) [nM] | Kd (CAVII) [nM] | Kd (CAIX; [1]) [nM] | Kd (CAII) [nM] | Kd (CAXIII) [nM] | Kd (CAVI) [nM] | Kd (CAXIV) [nM] | Kd (CAXII) [nM] | Kd (CAIX; Observed Dissociation Constant (Kd_obs), CAIX) [nM]
1 | NS(=O)(=O)c1ccc(NCC(CC(=O)NN=Cc2ccc([N+](=O)[O-])cc2)C(=O)NN=Cc2ccc([N+](=O)[O-])cc2)c(Cl)c1 (stereo not shown) [Compound 17b, 3-Chloro-4-((2-(2-(4-nitrobenzylidene)hydrazine-1-carbonyl)-4-(2-(4-nitrobenzylidene)hydrazineyl)-4-oxobutyl)amino)benzenesulfonamide] |  |  | 2600 | 220 to 221 |  |  |  |  | 570 | 1400 |  |  | 58000 | 1400
2 | Cn1c(CC(CNc2ccc(S(N)(=O)=O)cc2Cl)c2n[nH]c(=S)n2C)n[nH]c1=S (stereo not shown) [Compound 24b, 4-((2,3-bis(4-Methyl-5-thioxo-4,5-dihydro-1H-1,2,4-triazol-3-yl)propyl)amino)-3-chlorobenzenesulfonamide] |  |  | 2900 | 151 to 152 |  |  |  | 59 | 250 | 1300 |  |  | 1700 | 
3 | NS(=O)(=O)c1ccc(NCC(CC(=O)NN=Cc2cccc([N+](=O)[O-])c2)C(=O)NN=Cc2cccc([N+](=O)[O-])c2)c(Cl)c1 (stereo not shown) [Compound 16b, 3-Chloro-4-((2-(2-(3-nitrobenzylidene)hydrazine-1-carbonyl)-4-(2-(3-nitrobenzylidene)hydrazineyl)-4-oxobutyl)amino)benzenesulfonamide] |  |  | 3300 | 199 to 200 |  |  |  | 130 | 500 | 1000 |  |  | 130000 | 
4 | NS(=O)(=O)c1ccc(NCC(CC(=O)NN=Cc2ccccc2)C(=O)NN=Cc2ccccc2)cc1 (stereo not shown) [Compound 6a, 4-((2-(2-(Benzylidene)hydrazine-1-carbonyl)-4-(2-(benzylidene)hydrazineyl)-4-oxobutyl)amino)benzenesulfonamide] |  |  | 14000 | 208 to 209 |  |  |  | 560 | 1800 | 7700 |  |  | 25000 | 
5 | CCC(C)=NN1C(=O)CC(CNc2ccc(S(N)(=O)=O)cc2Cl)C1=O (stereo not shown) [Compound 4b, 4-(((1-(Butan-2-ylideneamino)-2,5-dioxopyrrolidin-3-yl)methyl)amino)-3-chlorobenzenesulfonamide] |  |  | 2900 | 92 to 93 |  |  |  | 250 | 330 | 1300 |  |  | 4000 | 
6 | CC(=NNC(=O)CC(CNc1ccc(S(N)(=O)=O)cc1)C(=O)NN=C(C)c1ccccc1)c1ccccc1 (stereo not shown) [Compound 5a, 4-((4-Oxo-2-(2-(1-phenylethylidene)hydrazine-1-carbonyl)-4-(2-(1-phenylethylidene)hydrazineyl)butyl)amino)benzenesulfonamide] |  |  | 8300 | 162 to 163 |  |  |  | 590 | 1300 | 5000 |  |  | 500 | 
7 | CCC(C)=NN1C(=O)CC(CNc2ccc(S(N)(=O)=O)cc2)C1=O (stereo not shown) [Compound 4a, 4-(((1-(Butan-2-ylideneamino)-2,5-dioxopyrrolidin-3-yl)methyl)amino)benzenesulfonamide] |  |  | 18000 | 117 to 118 |  |  |  | 2000 | 40000 | 20000 |  |  | 18000 | 
8 | NS(=O)(=O)c1ccc(NCC(CC(=O)NNC(=S)Nc2ccccc2)C(=O)NNC(=S)Nc2ccccc2)cc1 (stereo not shown) [Compound 23a, 2,2′-(2-(((4-Sulfamoylphenyl)amino)methyl)succinyl)bis(N-phenylhydrazine-1-carbothioamide)] |  |  | 4000 | 136 to 137 |  |  |  | 130 | 2000 | 10000 |  |  | 2200 | 
9 | COc1ccc(C=NNC(=O)CC(CNc2ccc(S(N)(=O)=O)cc2)C(=O)NN=Cc2ccc(OC)cc2)cc1 (stereo not shown) [Compound 14a, 4-((2-(2-(4-Methoxybenzylidene)hydrazine-1-carbonyl)-4-(2-(4-methoxybenzylidene)hydrazineyl)-4-oxobutyl)amino)benzenesulfonamide] |  |  | 32000 | 168 to 169 |  |  |  | 1400 | 3400 | 23000 |  |  | 38000 | 
10 | COc1ccc(C=NNC(=O)CC(CNc2ccc(S(N)(=O)=O)cc2Cl)C(=O)NN=Cc2ccc(OC)cc2)cc1 (stereo not shown) [Compound 14b, 3-Chloro-4-((2-(2-(4-methoxybenzylidene)hydrazine-1-carbonyl)-4-(2-(4-methoxybenzylidene)hydrazineyl)-4-oxobutyl)amino)benzenesulfonamide] |  |  | 510 | 198 to 199 |  |  |  | 290 | 59 | 66 |  |  | 10000 | 
11 | NS(=O)(=O)c1ccc(NCC(CC(=O)NN=Cc2cccc(O)c2)C(=O)NN=Cc2cccc(O)c2)cc1 (stereo not shown) [Compound 8a, 4-((2-(2-(3-Hydroxybenzylidene)hydrazine-1-carbonyl)-4-(2-(3-hydroxybenzylidene)hydrazineyl)-4-oxobutyl)amino)benzenesulfonamide] |  |  | 10000 | 192 to 193 |  |  |  | 670 | 2000 | 5000 |  |  | 33000 | 

More lines, now with the values ahead:

Row | Kd (CAIII) [nM] | Kd (CAVA) [nM] | Kd (CAI) [nM] | melting point [°C] | Kd (CAIV) [nM] | Kd (CAVB) [nM] | Kd (CAVII) [nM] | Kd (CAIX; [1]) [nM] | Kd (CAII) [nM] | Kd (CAXIII) [nM] | Kd (CAVI) [nM] | Kd (CAXIV) [nM] | Kd (CAXII) [nM] | Kd (CAIX; Observed Dissociation Constant (Kd_obs), CAIX) [nM] | SMILES
12 | ≥ 200000 | 33000 | 50000 | 192 to 193 | 6700 | 25000 | 10000 | 330 | 2500 | 33000 | 13000 | 3300 | 11000 |  | CNC(=S)NNC(=O)CC(CNc1ccc(S(N)(=O)=O)cc1)C(=O)NNC(=S)NC (stereo not shown) [Compound 22a, 2,2′-(2-(((4-Sulfamoylphenyl)amino)methyl)succinyl)bis(N-methylhydrazine-1-carbothioamide)]
13 |  |  | 22000 | 153 to 154 |  |  |  | 1400 | 2900 | 20000 |  |  | 23000 |  | NS(=O)(=O)c1ccc(NCC(CC(=O)NN=Cc2ccc(F)cc2)C(=O)NN=Cc2ccc(F)cc2)cc1 (stereo not shown) [Compound 13a, 4-((2-(2-(4-Fluorobenzylidene)hydrazine-1-carbonyl)-4-(2-(4-fluorobenzylidene)hydrazineyl)-4-oxobutyl)amino)benzenesulfonamide]
14 |  |  | 5900 | 186 to 187 |  |  |  | 500 | 1300 | 4300 |  |  | 25000 |  | NS(=O)(=O)c1ccc(NCC(CC(=O)NN=Cc2ccc(O)cc2)C(=O)NN=Cc2ccc(O)cc2)cc1 (stereo not shown) [Compound 9a, 4-((2-(2-(4-Hydroxybenzylidene)hydrazine-1-carbonyl)-4-(2-(4-hydroxybenzylidene)hydrazineyl)-4-oxobutyl)amino)benzenesulfonamide]
15 |  |  | 36000 | 179 to 180 |  |  |  | 1000 | 5000 | 17000 |  |  | 66000 |  | NS(=O)(=O)c1ccc(NCC(CC(=O)NN=Cc2ccc(Cl)cc2)C(=O)NN=Cc2ccc(Cl)cc2)cc1 (stereo not shown) [Compound 12a, 4-((2-(2-(4-Chlorobenzylidene)hydrazine-1-carbonyl)-4-(2-(4-chlorobenzylidene)hydrazineyl)-4-oxobutyl)amino)benzenesulfonamide]
16 |  |  | 1000 | 204 to 205 |  |  |  | 67 | 170 | 170 |  |  | 5000 |  | NS(=O)(=O)c1ccc(NCC(CC(=O)NN=Cc2ccccc2O)C(=O)NN=Cc2ccccc2O)c(Cl)c1 (stereo not shown) [Compound 7b, 3-Chloro-4-((2-(2-(2-hydroxybenzylidene)hydrazine-1-carbonyl)-4-(2-(2-hydroxybenzylidene)hydrazineyl)-4-oxobutyl)amino)benzenesulfonamide]
17 |  |  | 6700 | 211 to 212 |  |  |  | 670 | 1100 | 1500 |  |  | 57000 |  | NS(=O)(=O)c1ccc(NCC(CC(=O)NN=Cc2ccc(Cl)cc2)C(=O)NN=Cc2ccc(Cl)cc2)c(Cl)c1 (stereo not shown) [Compound 12b, 3-Chloro-4-((2-(2-(4-chlorobenzylidene)hydrazine-1-carbonyl)-4-(2-(4-chlorobenzylidene)hydrazineyl)-4-oxobutyl)amino)benzenesulfonamide]
